Inhibition and IC50 data for 2 compounds are collected here from ChEMBL document CHEMBL4828704, “Efophylins A and B, Two C2-Asymmetric Macrodiolide Immunosuppressants from Streptomyces malaysiensis” (J Nat Prod, 2021).

Activity calls are given as the source filed them. The calls are words filed in the database; no cut-off is given here.

Assay [1] addresses Calcineurin subunit B type 1 (Homo sapiens, UniProt P63098). Description: Inhibition of CNB (unknown origin) using p-NPP as substrate preincubated for 10 mins followed by substrate addition by spectrophotometry analysis.
In assay [2] the test system is Splenocyte. Description: Cytotoxicity against BALB/c mouse splenocyte assessed as reduction in cell viability measured after 72 hrs by CCK-8 assay. It counts as cell-based.
The subject of assay [3] is Splenocyte. The assay is described as follows: Inhibition of NFAT activation in BALB/c mouse splenocyte at 5 to 30 uM by immunoblotting analysis. It counts as tissue-based. The following applies: dose 5-30 µM.
Assay [4] relates to T-cell. The assay is described as follows: Inhibition of ConA-induced IL-2 expression in BALB/c mouse T-lymphocyte at 40 uM measured after 24 hrs by ELISA. It counts as functional, tissue-based.
Assay [5] in a line: Inhibition of ConA-induced proliferation of BALB/c mouse splenocyte measured after 72 hrs by CCK-8 assay. It counts as functional, tissue-based.
The subject of assay [6] is Splenocyte. The assay is described as follows: Immunosuppressive activity in C57BL/6 mouse splenocyte assessed as inhibition of mixed lymphocyte reaction when cocultured with mitomycin-C pretreated BALB/c mouse splenocyte measured up to 72 hrs by CCK-8 assay. It counts as functional, cell-based. The following applies: C57BL/6, Splenocyte.
Assay [7] concerns T-cell. The assay is described as follows: Inhibition of ConA-induced IL-2 expression in BALB/c mouse T-lymphocyte measured after 24 hrs by ELISA. It counts as functional, tissue-based.
In assay [8] the test system is Splenocyte. The assay is described as follows: Inhibition of NFAT phosphorylation in BALB/c mouse splenocyte at 5 to 30 uM by immunoblotting analysis. It counts as tissue-based. The following applies: dose 5-30 µM.

Sequence of Calcineurin subunit B type 1 (P63098 2-170 limits assumed): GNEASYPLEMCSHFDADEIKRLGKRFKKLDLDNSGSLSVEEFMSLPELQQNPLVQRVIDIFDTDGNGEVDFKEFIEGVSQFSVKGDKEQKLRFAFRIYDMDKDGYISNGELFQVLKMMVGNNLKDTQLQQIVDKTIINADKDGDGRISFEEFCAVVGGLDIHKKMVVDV

Take `CC[C@@H]1[C@@H](C)O[C@@](O)([C@@H](C)[C@H](O)[C@H](C)[C@H]2OC(=O)/C=C/C=C/[C@H](C)[C@@H]([C@@H](C)[C@@H](O)[C@H](C)C(O)/C=C/[C@H](CC)[C@@H](C)O)OC(=O)/C=C/C=C/[C@@H]2C)C[C@H]1O[C@H]1C[C@H](O)[C@H](O)[C@H](C)O1` (some centres undefined): in assay [1], the inhibition result was “inactive”.

For the compound `CC[C@@H]1[C@@H](C)O[C@@](OC)([C@@H](C)[C@H](O)[C@H](C)[C@H]2OC(=O)/C=C/C=C/[C@H](C)[C@@H]([C@@H](C)[C@@H](O)[C@H](C)C(O)/C=C/[C@H](CC)[C@@H](C)O)OC(=O)/C=C/C=C/[C@@H]2C)C[C@H]1O[C@H]1C[C@H](O)[C@H](O)[C@H](C)O1` (some centres undefined), the IC50 came out at 49 µM with Splenocyte [2], 24 µM in assay [1], 24.6 µM in assay [5] and 27.9 µM in the assay on Splenocyte [6]. Moreover, the inhibition entry in the assay with Splenocyte [3], in the assay on T-cell [4] and with Splenocyte [8] was “Active” throughout. Moreover, in the assay on T-cell [7], the inhibition result was “Dose-Dependent Effect”.
